Results as given in article PMC10096175, “An In Vitro Antimicrobial, Anticancer and Antioxidant Activity of N–[(2–Arylmethylthio)phenylsulfonyl]cinnamamide Derivatives” (Molecules, 2023).
Converted amounts (≈) assume the structure as drawn. Like-named read-outs stand apart in the source and are kept apart here.

Experiments:
HEK-293 cells = test: MTT assay, noncancerous cells; format: cell-based; conditions: Homo sapiens, HEK293; HEK-293; MTT, 24 h treatment; read-out: IC50
[1] = test system: S. epidermidis ATCC 14990; test: Blood bacteriostatic activity test in sheep blood; format: cell-based, Staphylococcus epidermidis; conditions: 24 h, 37 °C, t0 1.70 × 10^7, control t24 5.10 × 10^8
Experimental: (§1) The manifestation of the bactericidal properties of chemical compounds is low minimum bactericidal concentration (MBC) values, which allows many groups of researchers to check the killing rate over time (time killing tests). It is an important element in determining the strength and speed of action of a compound on bacteria. Such studies are usually carried out in bacterial media, without additional factors influencing the results.
(§2) This step was carried out on two types of bacteria, S. aureus ATCC 6538 (Figure 8 and Table 2) and S. epidermidis ATCC 14 990 (Figure 9 and Table 3).
(§3) The number of bacteria at the initial time (t0) was 1.30 × 10^8 CFU/mL for S. aureus and 1.70 × 10^7 CFU/mL for S. epidermidis. Live bacterial cells were assayed after 24 h of incubation at 37 °C. […] Bacterial controls without compounds grew unhindered and after 24 h (t24) were 2.28 × 10^9 for S. aureus and 5.10 × 10^8 CFU/mL for S. epidermidis. […] It can be assumed that the tested compounds were not related to any fraction of the blood. Attention should be paid to the S. epidermidis tests and the difference between the number of bacteria at t0 and after 24 h of incubation for each compound. The number of bacteria at t0 was 1.70 × 10^7 CFU/mL and after 24 h it decreased to, e.g., 9.40 × 10^6 CFU/mL for compounds 16e and 7.80 × 10^6 CFU/mL for compound 17c. It can be assumed that the tested compounds after being added to blood samples prevented bacteria from multiplying. However, under these conditions, the phagocytic cells take up the bacteria. […] This can be explained by much greater variety of mechanisms of action of S. aureus against phagocytic cells than of S. epidermidis. This can be integrated with the bacterial cell compounds, e.g., protein A, as well as enzymes that bacteria can secrete outside the cell, e.g., coagulase and staphylokinase. Additional studies should be conducted to check how the tested compounds affect the enzymes secreted by S. aureus.
(§4) The assay was performed as previously described by with a modification. Pure sheep blood was used for the research. Two strains of bacteria S. aureus ATCC 6538 and S. epidermidis ATCC 14990 were used with an inoculum density of approximately 10^8 CFU/mL at 0 time. The final concentration of the compounds was 0.5, 1, 2, 4, and 8 µg/mL, and the final volume of the assay tube was 1 mL. Bacterial survivors were determined on MH agar plates (CFU/mL) at 24 h after exposure.

HeLa cells = test: MTT assay; format: cell-based, human; conditions: for IC50: HeLa, MTT, 24 h treatment; for Selectivity index (SI): IC50 HEK-293 / IC50 HeLa
S. aureus ATCC 6538 [2] = test: Blood bacteriostatic activity test in sheep blood; format: cell-based, Staphylococcus aureus; conditions: 24 h, 37 °C, t0 1.30 × 10^8, control t24 2.28 × 10^9
Experimental: as §1, §2, §3, §4

C. diphtheriae = test: MIC determination, reference strain (microdilution); format: cell-based; conditions: Corynebacterium diphtheriae; C. diphtheriae; Co-trimoxazole as sulfamethoxazole/trimethoprim; read-out: MIC
C. albicans ATCC 10231 = test: MIC determination, reference fungal strain (microdilution); format: cell-based; conditions: Candida albicans, ATCC10231; C. albicans ATCC 10231; read-out: MIC
S. aureus ATCC 6538 [3] = test: MIC determination, reference strain (microdilution); format: cell-based; conditions: Staphylococcus aureus, ATCC6538; S. aureus ATCC 6538; ± SD; Co-trimoxazole as sulfamethoxazole/trimethoprim; read-out: MIC
E. hirae ATCC 10541 = test: as above; format: cell-based; conditions: Enterococcus hirae, ATCC10541; E. hirae ATCC 10541; Co-trimoxazole as sulfamethoxazole/trimethoprim; read-out: MIC
ABTS assay = conditions: ABTS radical scavenging; 10 min, 30 °C
Experimental: The ABTS assay was performed spectrophotometrically. […] ABTS solution with methanol/DMSO (9/1 v/v) was used as a control. After 10 min of incubation at 30 °C in the dark, the absorbance was analyzed at λ = 750 nm by a 96-well microplate reader (Epoch, BioTek System, Santa Clara, CA, USA). Ascorbic acid was used as a standard.
ABTS inhibition was calculated by the following equation:ABTS Inhibition (%) = [Acontrol − Asample)/Acontrol] × 100%
IC50 values of the samples were calculated using program GraFit v. 7.0 (Erithacus Software). The analysis was performed three times, with tree replications in each (n = 9). Statistical analysis was performed with one-way ANOVA with Tuckey’s post-hoc test.

B. subtilis ATCC 6633 = test: MIC determination, reference strain (microdilution); format: cell-based; conditions: Bacillus subtilis, ATCC6633; B. subtilis ATCC 6633; Co-trimoxazole as sulfamethoxazole/trimethoprim; read-out: MIC
E. coli ATCC 8739 = test: as above; format: cell-based; conditions: Escherichia coli, ATCC8739; E. coli ATCC 8739; Co-trimoxazole as sulfamethoxazole/trimethoprim; read-out: MIC
[4] = test system: S. epidermidis ATCC 14990; test: as above; format: cell-based; conditions: Staphylococcus epidermidis, ATCC14990; S. epidermidis ATCC 14990; Co-trimoxazole as sulfamethoxazole/trimethoprim; read-out: MIC
MCF-7 cells = test: MTT assay; format: cell-based, human; conditions: for IC50: Homo sapiens, MCF7, MCF-7, MTT, 24 h treatment, read-out: IC50; for Selectivity index (SI): IC50 HEK-293 / IC50 MCF-7
[5] = Homo sapiens, 24 h, read-out: IC50

| Compound | IC50 (HEK-293 cells) [µg/mL] | Number of viable cells of Staphylococcus epidermidis ([1]; 1 µg/mL) | Number of viable cells of Staphylococcus epidermidis ([1]; 2 µg/mL) | Number of viable cells of Staphylococcus epidermidis ([1]; 4 µg/mL) | Number of viable cells of Staphylococcus epidermidis ([1]; 8 µg/mL) | IC50 (HeLa cells; [5]) [µg/mL] | Selectivity index (SI) (HeLa cells) | Number of viable cells of Staphylococcus aureus (S. aureus ATCC 6538 [2]; 1 µg/mL) | Number of viable cells of Staphylococcus aureus (S. aureus ATCC 6538 [2]; 2 µg/mL) | Number of viable cells of Staphylococcus aureus (S. aureus ATCC 6538 [2]; 4 µg/mL) | Number of viable cells of Staphylococcus aureus (S. aureus ATCC 6538 [2]; 8 µg/mL) | MIC (C. diphtheriae) [µg/mL] | MIC (C. albicans ATCC 10231) [µg/mL] | MIC (S. aureus ATCC 6538 [3]) [µg/mL] | MIC (E. hirae ATCC 10541) [µg/mL] | IC50 ABTS (ABTS assay) [µg/mL] | MIC (B. subtilis ATCC 6633) [µg/mL] | MIC (E. coli ATCC 8739) [µg/mL] | MIC [4] [µg/mL] | IC50 (MCF-7 cells) [µg/mL] | further results |
| --- | --- | --- | --- | --- | --- | --- | --- | --- | --- | --- | --- | --- | --- | --- | --- | --- | --- | --- | --- | --- | --- |
| Cc1cc(S(=O)(=O)NC(=O)/C=C/c2ccc(Cl)cc2)c(SCc2cc3c(cc2Cl)OCO3)cc1Cl [Compound 17c, (E)–N–{4–Chloro–2–[(6–chlorobenzo[d][1,3]dioxol–5–yl)methylthio]–5–methylphenylsulfonyl}–3–(4–chlorophenyl)acrylamide] | 14.6 ± 0.58 (≈ 25.5 µM) | 7.80 × 10^6 CFU/mL | 4.25 × 10^6 CFU/mL | 1.40 × 10^7 CFU/mL | 5.10 × 10^6 CFU/mL | 11.2 ± 0.7 (≈ 19.7 µM) | 1.3 | 2.24 × 10^8 CFU/mL | 1.09 × 10^8 CFU/mL | 2.02 × 10^8 CFU/mL | 9.35 × 10^7 CFU/mL | > 125 | > 125 | 1 ± 0.29 (≈ 1.75 µM) | 2 ± 0.58 (≈ 3.5 µM) | 496.63 ± 0.48 (≈ 870 µM) | 62.5 ± 0.29 (≈ 109 µM) | > 125 | 1 ± 0.29 (≈ 1.75 µM) | 11.6 ± 0.91 (≈ 20.4 µM) | Selectivity index (SI) (MCF-7 cells): 1.2 |
| COc1ccc(/C=C/C(=O)NS(=O)(=O)c2cc(C)c(Cl)cc2SCc2cccc3ccccc23)cc1F [Compound 16e, (E)–N–{4–Chloro–5–methyl–2–[(naphthalen–1–yl)methylthio]phenylsulfonyl}–3–(3–fluoro–4–methoxyphenyl)acrylamide] | 10 ± 0.23 (≈ 18 µM) | 9.40 × 10^6 CFU/mL | 4.00 × 10^6 CFU/mL | 3.20 × 10^6 CFU/mL | 3.00 × 10^6 CFU/mL | 12.3 ± 0.2 (≈ 22.2 µM) | 0.8 | 2.15 × 10^8 CFU/mL | 1.27 × 10^8 CFU/mL | 1.94 × 10^8 CFU/mL | 2.80 × 10^8 CFU/mL | 62.5 ± 0.29 (≈ 112 µM) | > 125 | 2 ± 0.58 (≈ 3.6 µM) | 4 ± 0.15 (≈ 7.19 µM) | 697.70 ± 0.43 (≈ 1250 µM) | 62.5 ± 0.29 (≈ 112 µM) | > 125 | 1 ± 0.29 (≈ 1.8 µM) | 15.5 ± 0.82 (≈ 27.8 µM) | Selectivity index (SI) (MCF-7 cells): 0.6 |
| Cc1cc(S(=O)(=O)NC(=O)/C=C/c2ccc(Cl)cc2)c(SCc2cccc3ccccc23)cc1Cl [Compound 16d, (E)–N–{4–Chloro–5–methyl–2–[(naphthalen–1–yl)methylthio]phenylsulfonyl}–3–(4–chlorophenyl)acrylamide] | 10.8 ± 0.4 (≈ 19.9 µM) | 4.00 × 10^6 CFU/mL | 3.00 × 10^6 CFU/mL | 2.00 × 10^6 CFU/mL | 2.50 × 10^6 CFU/mL | < 10 | 1.1 | 1.88 × 10^8 CFU/mL | 1.66 × 10^8 CFU/mL | 1.58 × 10^8 CFU/mL | 1.27 × 10^8 CFU/mL | > 125 | > 125 | 1 (≈ 1.84 µM) | 2 ± 0.58 (≈ 3.69 µM) | 627.81 ± 2.29 (≈ 1160 µM) | 62.5 ± 0.29 (≈ 115 µM) | > 125 | 1 ± 0.29 (≈ 1.84 µM) | 12.8 ± 0.29 (≈ 23.6 µM) | IC50 (HeLa cells): 9.66 ± 0.75 µg/mL (≈ 17.8 µM); Selectivity index (SI) (MCF-7 cells): 0.8 |
